{"source": "patent US20230111504A1", "about": "“COR[…] AND AVERMECTINS” (Huvepharma EOOD, priority 2020, published 2023)", "key": {"[1]": {"system": "C reactive protein", "test": "COVID-19 clinical trial: predictive marker C reactive protein", "format": "in vivo, human", "conditions": "Day 14"}, "[2]": {"conditions": "rabbits; cited from earlier work"}, "[3]": {"conditions": "various species; cited from earlier work"}, "[4]": {"conditions": "rhesus monkeys, cited from earlier work"}, "[5]": {"system": "mouse lymphoma", "conditions": "cited from earlier work"}, "[6]": {"conditions": "repeated dose, 2 weeks, rhesus monkeys; cited from earlier work"}, "[7]": {"conditions": "fourteen-week study, dogs; cited from earlier work"}, "[8]": {"system": "SARS-CoV-2", "test": "COVID-19 clinical trial: viral clearance in upper respiratory tract swab samples (RT-PCR)", "format": "in vivo, human", "procedure": "(§1) Inclusion Criteria • 1. Male or female patients at least 18 years and up to 75 years old • 2. Signed informed consent • 3. Admitted to hospital for treatment of COVID-19. • 4. Patient within 7 days from symptom onset and within 72 hours after laboratory diagnosis (SARS-CoV-2 RT-PCR) • 5. Mild to Moderate COVID-19 disease defined as clinical status category up to 3 on the WHO 9-point ordinal scale, and/or NEWS2 score of 0 to 4 inclusive. • Hospitalized, no oxygen treatment • 6. Presence of at least 1 symptom characteristic for COVID-19 disease, e.g. fever, cough, sore throat, myalgia, fatigue, GI disorders, skin lesions, anosmia, ageusia, headache, etc • 7. In women of childbearing potential, negative pregnancy test and commitment to use contraceptive method throughout the study.\n(§2) Patients are screened for 24-36 hours. […] It is encouraged to screen potential participants immediately at the day of hospitalization (including informed consent, assessment of inclusion/exclusion criteria, screening laboratory tests all done by the local central lab, assessment of clinical symptoms criteria) and randomize patients on the same day (thus, Screening period and Day 1 will coincide). To assess eligibility criteria, central local laboratory values obtained within 24-36 hours of randomization will be used, except for pre-study testing of positive status of COVID-19 infection where a 72-hours window.\nPrimary endpoint based on which the primary study objective will be assessed is proportion of patients who have shown negative SARS-CoV-2 PCR test on Day 7.\n(§3) Day 1 is defined as the day of the first IMP/placebo administration.\nViral Clearance in Upper Respiratory Tract Swab Samples (Qualitative)—Remission\nUpper respiratory tract swab samples will be collected on Days 3, 4, 5, 6, 7, 9, 12 and 14 or until two negative results are obtained. Between Day 15 and Day 28 RT-PCR shall be done upon the discretion of the Investigator until 2 consecutive negative tests.\nNo further RT-PCR tests will be done after 2 consecutive negative tests are obtained at any time point of the study. Swab samples should be obtained from the nasopharynx and oropharynx with two different swabs and combined in one tube, containing universal transport media. Samples are collected preferably in the mornings of each study day. Full instructions for collection, preparation, labelling, storage and shipment of samples are provided in the Laboratory Manual."}, "[9]": {"conditions": "acute oral, mice; cited from earlier work"}, "[10]": {"system": "D-dimer", "test": "COVID-19 clinical trial: predictive marker D-dimer", "format": "in vivo, human"}, "[11]": {"system": "COVID-19", "test": "COVID-19 clinical trial: clinical improvement on WHO 9-category ordinal scale", "format": "in vivo, human", "procedure": "as §1, §2\nThe secondary endpoints, related to the secondary study objectives are the following: • a. Number of patients achieving clinical improvement on Day 7 • b. Number of patients achieving clinical improvement on Day 14 • c. Number of patients achieving clinical recovery on Day 7 • d. Number of patients achieving clinical recovery on Day 14\nas §3\nThe clinical disease severity during the study will be assessed based on the WHO Ordinal Scale for Clinical Status (Table 2). The WHO scale is a 9-category ordinal scale and was developed to have a standardized measure of the COVID-19 disease severity. The scale comprises patient status (outpatient or hospitalized), virus status (infected yes or no), limitation of activities, oxygen support, and organ support.\nThe same picture was observed on Day 5, with difference 18% (p=0.03 . . . ), regarding the endpoint Clinical improvement. This endpoint was measured using WHO 9-category ordinal scale, developed to have a standardized measure of the COVID-19 disease severity. Clinical improvement is defined as a decrease on WHO ordinal scale score by at least one point. For our statistical calculations from data obtained from the clinical trials we used the method described above i.e. O'Brien-Fleming method for normally distributed data."}, "[12]": {"system": "COVID-19", "test": "COVID-19 clinical trial: time to hospital discharge", "format": "in vivo, human", "conditions": "p=0.2755", "procedure": "as §1\nas §2, with “window. […]” for “window.”"}, "[13]": {"system": "human fibroblast cell culture", "conditions": "cited from earlier work"}, "[14]": {"conditions": "rats; cited from earlier work"}, "[15]": {"conditions": "cited from earlier work; for mean peak plasma concentration of the major component (H2B1a): single 12-mg dose (mean 165 mcg/kg)"}, "[16]": {"conditions": "people treated with ivermectin; cited from earlier work"}, "[17]": {"conditions": "fourteen-week study, rats; cited from earlier work"}, "[18]": {"conditions": "variety of species; cited from earlier work"}, "[19]": {"conditions": "acute oral, rats; relative to 200 μg/kg in mice; cited from earlier work"}, "[20]": {"conditions": "mice; cited from earlier work"}, "[21]": {"conditions": "dogs; cited from earlier work"}}, "note": "Read-outs that look alike come from different tables or passages of the source.", "data": [{"substance": "ivermectin", "values": [{"measurement": "CRP mean value", "setting": "[1]", "result": 13.76, "unit": "mg/L"}, {"measurement": "CRP median value", "setting": "[1]", "result": 3.70, "unit": "mg/L"}, {"measurement": "dose causing cleft palates and clubbed feet", "setting": "[2]", "result": 3, "unit": "mg/kg/day"}, {"measurement": "breeding performance", "setting": "[3]", "result": "has not been adversely affected"}, {"measurement": "minimum toxic dose", "setting": "[4]; acute oral", "result": "2,000 μg/kg"}, {"measurement": "toxic effects (emesis, mydriasis, sedation) at high doses", "setting": "[4]; doses up to 24 mg/kg (120-fold the clinical dose)", "result": "only slight increases in the observed toxic effects"}, {"measurement": "mouse lymphoma mutation assay result", "setting": "[5]", "result": "negative"}, {"measurement": "dose with no adverse effects", "setting": "[6]", "result": "up to 1,200 μg/kg/day"}, {"measurement": "dose with no adverse effects", "setting": "[7]", "result": 500, "unit": "µg/kg/day"}, {"measurement": "effect on viral clearance", "setting": "[8]; Day 4, immediately after treatment, 2 consecutive negative PCR tests", "result": "beneficial effect on the viral clearance"}, {"measurement": "patients with negative PCR test results (2 consecutive negative tests)", "setting": "[8]; Day 4, 400 μg/kg/day peroral Days 1-3 plus SoC, placebo arm 42%", "result": 52, "unit": "%"}, {"measurement": "Day of second negative PCR test, Mean", "setting": "[8]; N=50, 400 μg/kg/day peroral Days 1-3 plus SoC", "result": 5.52}, {"measurement": "day by which the effect appears", "setting": "[8]; PCR test endpoint", "result": "< 7", "unit": "days"}, {"measurement": "Day of second negative PCR test, Difference Reference minus Test", "setting": "[8]; p-value 0.3407, statistically insignificant", "result": 0.54, "unit": "days"}, {"measurement": "dose producing tremors and ataxia", "setting": "[9]", "result": 0.2, "unit": "mg/kg"}, {"measurement": "D-dimer mean value", "setting": "[10]; Day 3", "result": 395.8, "unit": "ng/mL"}, {"measurement": "D-dimer mean value", "setting": "[10]; Day 14", "result": 561.69, "unit": "ng/mL"}, {"measurement": "Clinical improvement versus placebo arm", "setting": "[11]; Day 4, p=0.02..., decrease on WHO ordinal scale by at least one point", "result": "statistically significant difference"}, {"measurement": "Clinical improvement, difference versus placebo arm", "setting": "[11]; Day 5, p=0.03...", "result": 18, "unit": "%"}, {"measurement": "Clinical improvement by visit day", "setting": "[11]; FIG. 3, later difference statistically insignificant", "result": "better results at days 4 and 5"}, {"measurement": "overall clinical benefit versus Placebo treatment arm", "setting": "[11]; early days of infection (day 4 and day 5 after initial dose)", "result": "definitely shows clinical benefit"}, {"measurement": "Time to hospital discharge, difference between arms", "setting": "[12]", "result": "no statistically significant difference"}, {"measurement": "unscheduled DNA synthesis", "setting": "[13]", "result": "did not induce"}, {"measurement": "oral dose causing cleft palates", "setting": "[14]", "result": 10, "unit": "mg/kg/day"}, {"measurement": "mean peak plasma concentration of the major component (H2B1a)", "setting": "[15]; first of two studies, fasting healthy volunteers, range 16.4-101.1", "result": "46.6 (±21.9) ng/mL"}, {"measurement": "period of excretion in the feces", "setting": "[15]; ivermectin and/or metabolites, excreted almost exclusively in the feces", "result": "~12", "unit": "days"}, {"measurement": "plasma half-life", "setting": "[15]; man, oral administration", "result": "approximately 18 hours"}, {"measurement": "plasma concentration versus dose", "setting": "[15]; oral administration", "result": "approximately proportional to the dose"}, {"measurement": "administered dose excreted in the urine", "setting": "[15]; oral", "result": "less than 1%"}, {"measurement": "mean peak plasma concentration of the major component (H2B1a)", "setting": "[15]; second of two studies, fasting healthy volunteers, range 13.9-68.4", "result": "30.6 (±15.6) ng/mL"}, {"measurement": "time of peak plasma concentration after dosing", "setting": "[15]; single 12-mg dose, fasting healthy volunteers", "result": "approximately 4 hours"}, {"measurement": "common side effects", "setting": "[16]", "result": "headache, dizziness, drowsiness, muscle pain, abdominal pain, nausea, vomiting or diarrhea, pruritus, fatigue, hypotension"}, {"measurement": "dose with no adverse effects", "setting": "[17]", "result": 400, "unit": "µg/kg/day"}, {"measurement": "tolerability of a 200 μg/kg dose", "setting": "[18]", "result": "generally well tolerated"}, {"measurement": "dose producing tremors and ataxia", "setting": "[19]", "result": "slightly higher doses"}, {"measurement": "oral dose causing cleft palates", "setting": "[20]", "result": 0.4, "unit": "mg/kg/day"}, {"measurement": "single oral dose with no significant lethality", "setting": "[21]", "result": "up to 10 mg/kg"}]}]}
